# Entries after “also recorded” stand apart in the source; their conditions may differ.
# Tests used:
# jejunum of C3H mice = conditions: mouse, in vivo, 2 mg/kg
# Experimental: (§1) C3H female mice, 11-13 weeks of age, were used in this study.
# (§2) The dynamic enteroscintigraphy with ^99m Tc-pertechnetate and the morphology studies were performed as described above in Example 1.
# [1] = general statement; cited from earlier work
# jejunal crypts = assay: Jejunal microcolony assay (surviving crypts); assay type: in vivo, C3H mice; conditions: 3.5 days, vs control
# Experimental: (§3) At 3.5 days after irradiation with 4, 6, 8 and 12.5 Gy and immediately upon completion of the absorption study, groups of 4-5 mice per radiation dose were killed by cervical dislocation and a 2-cm length of jejunum was removed for histological preparation. Intestinal segments were fixed in 10% neutral buffered formalin. Four transverse sections of intestine were prepared embedded into paraffin, cut at a thickness of 4 μm and stained with hematoxylin and eosin (H&E). Slides with tissue sections were examined with light microscopy under 400-power magnification. A total of 500 crypt cells per mouse form 12-16 complete crypts were scored as mitotic or apoptotic. The jejunum microcolony assay of H. R. Withers et al., J. Rad. Biol., 17, 261 (1970) was used to quantify jejunal crypt survival. Tissue sections were scored microscopically using 100-power magnification. Surviving crypts contained at least 10 tightly packed columnar epithelial cells located in the base of the crypt (discrete cell microcolonies). The number of surviving crypts/circumference of jejunum was plotted as a function of radiation dose in Gy.
# as §1, §2
# intestinal villi = assay type: in vivo, C3H mice; conditions: 9-AC (4 mg/kg), 3.5 days
# Experimental: as §3, §1, §2
# jejunal mucosa [2] = assay type: in vivo, C3H mice; conditions: 2 mg/kg 9-AC + 4 Gy TBI, day 3.5
# Experimental: as §3, §1, §2
# [3] = Toxicity of 9-aminocamptothecin; conditions: single 2 mg/kg 9-AC intramuscular injection
# [4] = test system: intestine lumen / technetium pertechnetate active transport
# [5] = test system: intestine lumen / technetium pertechnetate active transport; conditions: mouse, in vivo; cited from earlier work
# jejunal mucosa [6] = conditions: literature, cited from earlier work
# jejunal mucosa [7] = conditions: intraluminal, after 12.5 Gy TBI
# Experimental: To exclude a role of simple diffusion ("leakage") of the tracer through the irradiated GI mucosa studies of the intestinal permeability with ^67 Ga-citrate complex introduced into the jejunal lumen at 84 hours after exposure to 12.5 Gy were performed.
# In order to evaluate if ^99m TcO^-4 absorption remains an active transport process in irradiated animals rather than passive diffusion or "leakage" phenomenon, studies were performed on irradiated gut permeability with ^67 Ga citrate complex.
# [8] = literature, cited from earlier work
# mouse jejunal mucosa = assay: Dynamic enteroscintigraphy of jejunal absorption of ^99m TcO^-4 after total body irradiation; assay type: in vivo, C3Hf/Kam mice; conditions: for effect of irradiation on intestinal absorption: 4, 6, 8 and 12.5 Gy TBI
# Source text: The effect of irradiation on pertechnetate (^99m TcO^-4) absorption in the mouse jejunum was studied in situ following single acute total body irradiation (TBI) with 4 Gy, 6 Gy, 8 Gy, and 12.5 Gy. During irradiation, three unanesthetized mice were placed in a 20×20×3.5 cm air-ventilated plastic jig and exposed to a single-source ^60 Co irradiator (Theratron 780-C) at a dose rate of […], with open irradiation field and 71 cm SSD. This setting assured homogeneous dose distribution within ±3% error.
# Four to five mice per irradiation dose of 4 Gy, 6 Gy, 8 Gy and 12.5 Gy per day after irradiation (6 Gy irradiated group) were studied for the intestinal absorption function. The mice were fasted overnight (waster ad libitum) and then anesthetized with 100 μL of 1.5 mg/g ketamine solution injected intraperitoneally. The procedure began with a short midline incision of the abdomen after onset of deep anesthesia, and a 3 cm segment of the upper jejunum was identified, ligated with cotton sutures and catheterized with 0.2 mm flexible plastic catheter.
# Next, the abdomen incision was closed with cotton sutures and the mouse was positioned under the collimated detector so the 1.5 cm window of the collimator was viewed at the heart projection with 0.2 cm skin-to-collimator distance. A 100 μL physiologic solution containing 100 μCi of Na(^99m TcO4) was rapidly injected through the catheter into the proximal end of the isolated jejunal segment with complete filling of the entire segment.
# The absorption rate of ^99m TcO^-4 from the site of injection into the circulation was recorded automatically by measuring the relative radioactivity build-up rate above the heart projection with the frequency of two measurements per second. The entire dynamic enteroscintigraphy procedure took about 15 minutes in control mice. The systemic absorption of the pertechnetate (^99m TcO^-4) was performed on a standard scintillation radiometer combined with a multichannel analyzer (Ludlum Measurements, Sweetwater, Tex.) to record the radiometry data in time-dependent fashion. The software ULTIMA-4 was used to receive the graphic imaging of the dynamic radiometry data.
# Measured activity/time curves detected above the heart are mathematically modeled as exponential saturation of the form y(t)=y0+dy {1-exp[-k(t-t0)]}; where y(t) is the observed time-dependent radioactive counts above the heart; y0 is the observed activity at time of tracer introduction, t0; dy is the magnitude of the change in radioactive counts after tracer introduction; and k is the rate constant characteristic of the active transport of tracer through the intestinal wall into the systemic blood circulation. Analyses of tracer absorption kinetics by this expression allow precise statistical assessment of radiation-induced functional impairment of the jejunal active transport process.
molecule,measurement,setting,value
CC[C@@]1(O)C(=O)OCc2c1cc1n(c2=O)Cc2cc3c(N)cccc3nc2-1 [9-aminocamptothecin],mean rate of ^99m Tc-pertechnetate intestinal absorption,jejunum of C3H mice,significantly delayed
same,GI toxicity,[1],pronounced GI toxicity
same,jejunal crypt survival,jejunal crypts; 9-AC (2 mg/kg) plus irradiation (4 Gy),failed to show any difference in jejunal crypt survival
same,jejunal crypt survival,jejunal crypts; 9-AC alone (2 mg/kg),failed to show any difference in jejunal crypt survival
same,cell loss on the intestinal villi,intestinal villi,maximal cell loss on the intestinal villi
same,additive decrease in absorption vs number of apoptotic cells in the jejunal mucosa,jejunal mucosa [2],correlates well with the number of apoptotic cells in the jejunal mucosa
same,2 mg/kg intramuscular dose as fraction of LD10,[3],1/2
"[K+].[O-][Cl+3]([O-])([O-])[O-] [KClO4, potassium perchlorate]",shift of the saturation point on the radioactivity/time curve,"[4]; mouse, in vivo",shifted the saturation point on the radioactivity/time curve to the right without changes in the amount of the absorbed tracer
same,competitive inhibition of technetium pertechnetate active transport,[5],known competitive inhibitor
O=C([O-])CC(O)(CC(=O)[O-])C(=O)[O-].[67Ga+3] [^67 Ga-citrate],accumulation in the sites of lesion,jejunal mucosa [6]; inflammation or local hyperthermia,augments ^67 Ga-citrate accumulation in the sites of lesion
same,crossing of the intestinal epithelial barrier,jejunal mucosa [6]; normal,normally does not cross the intestinal epithelial barrier
same,jejunal mucosa permeability,jejunal mucosa [7],jejunal mucosa stays impermeable
"[131IH] [^131 Iodine, iodine-131]",shape of intestinal absorption curve / active transport kinetics,"[4]; mouse, in vivo",same shape of the ^99m TcO^-4 intestinal absorption curve was obtained
technetium pertechnetate [^99m TcO^-4],metabolic activity,[8],low metabolic activity
same,radiotoxicity,[8],one of the least radiotoxic nuclides
same,γ-emission energy,[8],140 keV
same,half-life,[8]; radionuclide,6 h
same,intestinal absorption into the bloodstream,[4]; control mice,Rapid absorption
same,effect of irradiation on intestinal absorption,mouse jejunal mucosa,substantial dose-dependent decrease in the absorption function; also recorded: significantly decreases ^99m TcO^-4 jejunal absorption
same,effect of irradiation on intestinal absorption,mouse jejunal mucosa; listed as 99m Technetium-pertechnetate,decreased in a dose-dependent fashion
same,mean rate of the tracer absorption,"mouse jejunal mucosa; 4 Gy TBI, 3.5 days after irradiation",1.51±0.15
same,time of minimal absorption after irradiation,mouse jejunal mucosa; 6 Gy TBI,3.5 days
same,time to return of absorption rate to a normal level,mouse jejunal mucosa; 6 Gy TBI,about 14 days
same,effect of irradiation on absorption function at 24 hours,"mouse jejunal mucosa; 6 Gy TBI, 24 hours after irradiation",significant decrease in the absorption function; also recorded: significant effect
same,"jejunal absorption, % of the control level","mouse jejunal mucosa; 12.5 Gy TBI, 3.5 days after irradiation, listed as 99m Technetium-pertechnetate",~25 % of the control level
same,correlation of decrease in absorption with cells per villus and irradiation dose,mouse jejunal mucosa; 3.5 days after 4 to 12.5 Gy,correlated with the numbers of cells per villus and the irradiation dose
same,mean rate of the tracer absorption,mouse jejunal mucosa; control (no irradiation),1.35±0.25
same,time of maximal reduction of absorption,mouse jejunal mucosa; independently of TBI doses used,84 h
